{
  "source": "patent US20040034003A1",
  "about": "“7-Hydroxy-16alpha-fluoro-5-androsten-17-ones and 7-hydroxy-16alpha-fluoro-5-androstan-17-ones and derivatives thereof” (priority 2002, published 2004)",
  "test_system": "TPA-Induced DNA Synthesis in Mouse Epidermis",
  "assay": "TPA-induced DNA synthesis in mouse epidermis: [3H]thymidine incorporation and epidermal DNA content of a 2x2 cm2 skin section",
  "type": "in vivo",
  "details": "for μg DNA / corrected cpm / cpm/μg DNA / cpm: individual mouse; for dose producing a nadir in [3H]thymidine incorporation / dose producing an overstimulation of [3H]thymidine incorporation: s.c.; for lowest effective dose which suppresses TPA-stimulated epidermal [3H]thymidine incorporation and DNA content: mice",
  "protocol": "Epidermal hypeplasia is determined by measuring the stimulation in [^3H] thymidine incorporation as well as epidermal DNA content of a 2×2 cm^2 section of skin twenty hours after TPA application.\nIn prior experiments, 16α-fluoro-5-androsten-17-one was administered in escalating doses by the oral subcutaneous, intraperitoneal, and buccal routes of administration, and the effect on TPA-stimulated epidermal [^3H] thymidine incorporation and epidermal DNA content was determined.\nIn this experiment, the effect of treating mice subcutaneously (s.c.) with suspensions of 7α-hydroxy-16α-flouro-5-androsten-17-one and suspensions of 16aflouro-5-androsten-17-one were investigated.\nVariousl6α-flouro-5-androsten-17 one suspensions (Q) were prepared. The vehicle was 95% saline (0.9% NaCl) and 5% Emulphor. For the 5 mg/kg s.c. suspension, 25.3 mg was suspended in 10 mL of Emulphor-saline. The other suspensions were made by diluting the 5 mg/kg suspension. For the 2.5 mg/kg suspension, 1 mL of 5mg/kg s.c. suspension was diluted to a final volume of 2mL, for the 1 m/kg suspension 1 mL of the 5 mg/kg suspension was made to a total of 5 mL, while for the 0.125 mg/kg suspension, 0.5 mL of the 5 mg/kg suspension was made to a final volume of 20 mL. Magnetic stir bars were added to the suspensions which were kept on a magnetic stirrer.\n7α-hydroxy-16α-flouro-5-androsten-17-one was prepared as described hereinabove. For the 5 mg/kg s.c. suspension, 16.3 mg was suspended in 6.5 mL of Emulphor-saline. The other suspensions were made by diluting the 5 mg/kg suspension. For the 2.5 mg/kg, 1 mL of 5 mg/kg suspension was diluted to a final volume of 2 mL, for the 1 mg/kg suspension 1 mL of the 5 mg/kg suspension was made to total 5 mL, while for the 0.125 mg/kg suspension, 0.5 mL of the 5 mg/kg suspension was made up to final volume of 20 mL. Magnetic stir bars were added to the suspensions and the suspensions were kept on a magnetic stirrer.\nFemale CD-1 mice were obtained from Charles River Laboratories, Wilmington, Mass. at 44-46 days of age. The mice were housed two to three per cage in plastic shoebox cages on Alphacel bedding with 12 hours of alternating light and dark in the CAF Animal Facility, 6th floor, Pharmacy Building. The mice had ad libitum access-to Purina 5015 chow and acidified tap water (pH≦2.6). The mice were allowed to acclimate to the facility for one week prior to use in an experiment. Three days after obtaining the mice, the mice were shaved and weighed. Only those mice showing no hair regrowth were used in the experiment.\nFour days after the mice were shaved, they were treated as follows:\nThe mice were sacrificed 20 hours after treatment by an overdose of CO2. Twenty minutes prior to sacrifice, the mice were injected with 60 μCi of [^3H]thymidine (Amersham Batch 297). The mice were treated with a depilatory to remove any residual hair. A 2×2 cm^2 piece of skin was excised, placed in ice water for 30 seconds, then in 55° C. water for 30 seconds, then ice water again for 30 seconds. The epidermis was scrapped off using a scalpel and the scrapings were placed into ice cold 0.4N TCA (trichloroacetic acid). The scrapings were homogenized using a Tekmar Tissumizer (80% power for 30 seconds). The homogenates were centrifuged for 20 minutes at 3,000×g. The precipitates were washed 3× with 0.2N TCA, and 2× with absolute ethanol. The DNA in each sample was hydrolyzed with 0.5N TCA for 30 minuts at 90°. The tubes were centrifuged for 20 minutes at 3000×g. A 0.2 mL aliquot of each hydrolysate was counted in a LKB Rackbeta scintillation counter using Scintiverse II BD as the counting medium. DNA content was determined by the Burton diphenylamine assay.\nVarious suspensions were prepared of 16α-fluoro-5-androsten-17-one as follows. The vehicle was 95% saline (0.9% NaCl) and 5% Emulphor. For the 5 mg/kg s.c. suspension, 27.8 mg was suspended in 11.4 mL of Emulphor-saline. The other suspensions were made by diluting the 5 mg/kg suspension. […]",
  "key": {"[1]": {"details": "Example 4, 0.125 mg/kg s.c. 1 h before topical TPA 2 μg, 20 h, 0.125 mg/kg"}, "[2]": {"details": "Example 4, 1 mg/kg s.c. 1 h before topical TPA 2 μg, 20 h, 1 mg/kg"}, "[3]": {"details": "Example 4, 2.5 mg/kg s.c. 1 h before topical TPA 2 μg, 20 h, 2.5 mg/kg"}, "[4]": {"details": "Example 4, 5 mg/kg s.c. 1 h before topical TPA 2 μg, 20 h, 5 mg/kg"}, "[5]": {"details": "Example 5, 1 mg/kg s.c. 1 h before topical TPA 2 μg, 20 h, listed as Fluasterone, 1 mg/kg"}, "[6]": {"details": "Example 5, 2.5 mg/kg s.c. 1 h before topical TPA 2 μg, 20 h, listed as Fluasterone, 2.5 mg/kg"}, "[7]": {"details": "Example 5, 5 mg/kg s.c. 1 h before topical TPA 2 μg, 20 h, listed as Fluasterone, 5 mg/kg"}, "[8]": {"details": "prior experiments, escalating doses, oral, subcutaneous, intraperitoneal and buccal routes"}},
  "note": "Several values for one entry are separate records, joined by “and”; a condition that tells them apart may be missing. Equal entries are not always repeated.",
  "data": [
    {"compound": "C[C@]12CCCCC1=CC[C@@H]1[C@@H]2CC[C@]2(C)C(=O)[C@H](F)C[C@@H]12", "note": "[Q, 16α-fluoro-5-androsten-17-one, reference compound]", "values": [
      {"measurement": "μg DNA", "setting": "Example 4, 0.125 mg/kg s.c. 1 h before topical TPA 2 μg, 20 h, Burton diphenylamine assay, 0.125 mg/kg", "value": "10.0 µg and 9.1 µg"},
      {"measurement": "cpm/μg DNA (group average ±)", "setting": "Example 4, 0.125 mg/kg s.c. 1 h before topical TPA 2 μg, 20 h", "value": "441.5 ± 133.4", "unit": "cpm/μg DNA"},
      {"measurement": "corrected cpm", "setting": "[1]", "value": "3,471.0 cpm and 4,876.0 cpm"},
      {"measurement": "cpm/μg DNA", "setting": "[1]", "value": "347.1 cpm/μg DNA and 535.8 cpm/μg DNA"},
      {"measurement": "cpm", "setting": "Example 4, 0.125 mg/kg s.c. 1 h before topical TPA 2 μg, female CD-1 mice, 20 h after treatment, 0.125 mg/kg", "value": "3,496.0 cpm and 4,901.0 cpm"},
      {"measurement": "cpm/μg DNA (group average ±)", "setting": "Example 4, 1 mg/kg s.c. 1 h before topical TPA 2 μg, 20 h", "value": "236.4 ± 46.5", "unit": "cpm/μg DNA"},
      {"measurement": "corrected cpm", "setting": "[2]", "value": "1,811.0 cpm and 2,750.1 cpm"},
      {"measurement": "cpm", "setting": "[2]", "value": "1,836.0 cpm and 2,775.1 cpm"},
      {"measurement": "cpm/μg DNA", "setting": "[2]", "value": "203.5 cpm/μg DNA and 269.6 cpm/μg DNA"},
      {"measurement": "μg DNA", "setting": "[2]", "value": "8.9 µg and 10.2 µg"},
      {"measurement": "cpm/μg DNA (group average ±)", "setting": "Example 4, 2.5 mg/kg s.c. 1 h before topical TPA 2 μg, 20 h", "value": "173.3 ± 11.3", "unit": "cpm/μg DNA"},
      {"measurement": "corrected cpm", "setting": "[3]", "value": "1,251.0 cpm and 1,207.0 cpm"},
      {"measurement": "cpm", "setting": "[3]", "value": "1,276.0 cpm and 1,232.0 cpm"},
      {"measurement": "cpm/μg DNA", "setting": "[3]", "value": "181.3 cpm/μg DNA and 165.3 cpm/μg DNA"},
      {"measurement": "μg DNA", "setting": "[3]", "value": "6.9 µg and 7.3 µg"},
      {"measurement": "cpm/μg DNA (group average ±)", "setting": "Example 4, 5 mg/kg s.c. 1 h before topical TPA 2 μg, 20 h", "value": "1105.5 ± 28.4", "unit": "cpm/μg DNA"},
      {"measurement": "corrected cpm", "setting": "[4]", "value": "8,249.0 cpm and 10,018.0 cpm"},
      {"measurement": "cpm", "setting": "[4]", "value": "8,274.0 cpm and 10,043.0 cpm"},
      {"measurement": "cpm/μg DNA", "setting": "[4]", "value": "1,085.4 cpm/μg DNA and 1,125.6 cpm/μg DNA"},
      {"measurement": "μg DNA", "setting": "[4]", "value": "7.6 µg and 8.9 µg"},
      {"measurement": "dose producing a nadir in [3H]thymidine incorporation", "setting": "Example 4", "value": 2.5, "unit": "mg/kg"},
      {"measurement": "dose producing an overstimulation of [3H]thymidine incorporation", "setting": "Example 4", "value": 5, "unit": "mg/kg"},
      {"measurement": "cpm/μg DNA (group average ±)", "setting": "Example 5, 1 mg/kg s.c. 1 h before topical TPA 2 μg, 20 h", "value": "170.3 ± 21.7", "unit": "cpm/μg DNA"},
      {"measurement": "corrected cpm", "setting": "[5]", "value": "2,691.0 cpm and 2,741.0 cpm"},
      {"measurement": "cpm/μg DNA", "setting": "[5]", "value": "185.6 cpm/μg DNA and 154.9 cpm/μg DNA"},
      {"measurement": "μg DNA", "setting": "[5]", "value": "14.5 µg and 17.7 µg"},
      {"measurement": "cpm", "setting": "Example 5, 1 mg/kg s.c. 1 h before topical TPA 2 μg, female CD-1 mice, 20 h, listed as Fluasterone, 1 mg/kg", "value": "2,717.0 cpm and 2,767.0 cpm"},
      {"measurement": "cpm/μg DNA (group average ±)", "setting": "Example 5, 2.5 mg/kg s.c. 1 h before topical TPA 2 μg, 20 h", "value": "81.4 ± 12.0", "unit": "cpm/μg DNA"},
      {"measurement": "corrected cpm", "setting": "[6]", "value": "496.0 cpm and 566.0 cpm"},
      {"measurement": "cpm", "setting": "[6]", "value": "522.0 cpm and 592.0 cpm"},
      {"measurement": "cpm/μg DNA", "setting": "[6]", "value": "72.9 cpm/μg DNA and 89.8 cpm/μg DNA"},
      {"measurement": "μg DNA", "setting": "[6]", "value": "6.8 µg and 6.3 µg"},
      {"measurement": "cpm/μg DNA (group average ±)", "setting": "Example 5, 5 mg/kg s.c. 1 h before topical TPA 2 μg, 20 h", "value": "258.8 ± 12.0", "unit": "cpm/μg DNA"},
      {"measurement": "corrected cpm", "setting": "[7]", "value": "2,192.0 cpm and 1,777.0 cpm"},
      {"measurement": "cpm", "setting": "[7]", "value": "2,218.0 cpm and 1,803.0 cpm"},
      {"measurement": "cpm/μg DNA", "setting": "[7]", "value": "267.3 cpm/μg DNA and 250.3 cpm/μg DNA"},
      {"measurement": "μg DNA", "setting": "[7]", "value": "8.2 µg and 7.1 µg"},
      {"measurement": "dose producing a nadir in [3H]thymidine incorporation", "setting": "Example 5", "value": 2.5, "unit": "mg/kg"},
      {"measurement": "dose producing an overstimulation of [3H]thymidine incorporation", "setting": "Example 5", "value": 5, "unit": "mg/kg"},
      {"measurement": "lowest effective dose which suppresses TPA-stimulated epidermal [3H]thymidine incorporation and DNA content", "setting": "prior experiments, buccal route", "value": "2.5 to 5", "unit": "mg/kg"},
      {"measurement": "dose response for [3H]thymidine incorporation (in words)", "setting": "[8]", "value": "U-shaped dose response"},
      {"measurement": "epidermal DNA content as the dose increased (in words)", "setting": "[8]", "value": "remained suppressed"},
      {"measurement": "lowest effective dose which suppresses TPA-stimulated epidermal [3H]thymidine incorporation and DNA content", "setting": "prior experiments, intraperitoneal route", "value": 5, "unit": "mg/kg"},
      {"measurement": "lowest effective dose which suppresses TPA-stimulated epidermal [3H]thymidine incorporation and DNA content", "setting": "prior experiments, oral route", "value": 200, "unit": "mg/kg"},
      {"measurement": "lowest effective dose which suppresses TPA-stimulated epidermal [3H]thymidine incorporation and DNA content", "setting": "prior experiments, subcutaneous route", "value": 2.5, "unit": "mg/kg"},
      {"measurement": "TPA-induced epidermal hyperplasia in mice (in words)", "setting": "prior finding", "value": "inhibits"}
    ]}
  ]
}
